According to PMC8951032, “Study of Biological Activities and ADMET-Related Properties of Novel Chlorinated N-arylcinnamamides” (International Journal of Molecular Sciences, 2022):
≈ marks a conversion by molar mass, not a printed value. Read-outs that look alike come from different tables or passages of the source.

Assays:
[1] = Lipophilicity determination by RP-HPLC (log k, log D); type: physicochemical; settings: for log k: MeOH 72%/H2O 28%; for log D6.5: MeOH 72%/acetate buffered saline pH 6.5; for log D7.4: MeOH 72%/acetate buffered saline pH 7.4
Protocol: In addition to the mentioned ADME profile, it is responsible for interactions with biological targets. Lipophilicity is recognized as one of the most important parameters influencing ADME and bioactivity and is also part, e.g., of Lipinski’s Rule of Five (Ro5). This thermodynamic parameter describing the molecule’s affinity for an aqueous or relatively lipophilic environment can be characterized by the logarithm of the partition coefficient (log P). In this study, lipophilicity was measured by reversed-phase high-performance liquid chromatography (RP-HPLC) under isocratic conditions with methanol as the organic modifier in the aqueous mobile phase and the logarithm of the capacity factor k was calculated, which is used as the lipophilicity index converted to the log P scale. In addition to the log k values, the logarithm of the distribution coefficient DpH at pH 6.5 and 7.4 was determined to clarify the behavior of the compounds under physiological conditions and possible ionization. Instead of water, a buffer of suitable pH was used as part of the mobile phase. In addition to the above-mentioned experimental methods, commercially available ChemBioDraw Ultra 13.0 and ACD/Percepta ver. 2012 programs were used to calculate the lipophilicity values of all prepared compounds.
A HPLC separation module Waters Alliance 2695 XE equipped with a Waters Dual Absorbance Detector 2486 (Waters Corp., Milford, MA, USA) was used. A chromatographic column Symmetry® C18 5 μm, 4.6 × 250 mm, Part No. W21751W016 (Waters Corp., Milford, MA, USA) was used. The HPLC separation process was monitored by Empower® 3 Chromatography Manager Software (Waters Corp.). Isocratic elution by a mixture of MeOH p.a. (72%) and H2O-HPLC Mili-Q grade (28%) as a mobile phase was used for the determination of capacity factor k. Isocratic elution by a mixture of MeOH p.a. (72%) and acetate buffered saline (pH 7.4 and pH 6.5) (28%) as a mobile phase was used for the determination of distribution coefficient expressed as D7.4 and D6.5. The total flow of the column was 1.0 mL/min, injection 20 μL, column temperature 40 °C, and sample temperature 10 °C. The detection wavelength of 210 nm was chosen. A KI methanolic solution was used for the determination of the dead times (tD). Retention times (tR) were measured in minutes. The capacity factors k were calculated according to the formula k = (tR − tD)/tD, where tR is the retention time of the solute, and tD is the dead time obtained using an unretained analyte. The distribution coefficients DpH were calculated according to the formula DpH = (tR − tD)/tD. Each experiment was repeated three times.

[2] = system: Mycobacterium smegmatis ATCC 700084; assay: In vitro antimycobacterial activity, broth dilution MIC; type: cell-based; settings: Mycolicibacterium smegmatis
[3] = system: Mycobacterium marinum CAMP 5644; assay: as above; type: cell-based; settings: CAMP5644, 504 h
[4] = ATCC700084, 72 h, M. smegmatis ATCC 700084, three days, read-out: MIC MS
[5] = ATCC700084, M. smegmatis ATCC 700084, read-out: log(1/MIC [M]) MS (converted)
[6] = M. marinum CAMP 5644, 21 days, read-out: MIC MM
[7] = M. marinum CAMP 5644, read-out: log(1/MIC [M]) MM (converted)

log k [1]	log D6.5 [1]	log D7.4 [1]	Compound	MIC [2, 4] [M]	MIC [2, 5] [M]	MIC [3, 6] [M]	MIC [3, 7] [M]
0.4490	0.4428	0.4515	O=C(/C=C/c1ccc(Cl)cc1)Nc1ccccc1 [1a, (2E)-3-(4-Chlorophenyl)-N-phenylprop-2-enamide]				
0.6459	0.5908	0.5965	O=C(/C=C/c1ccc(Cl)cc1)Nc1ccccc1F [1b, (2E)-3-(4-Chlorophenyl)-N-(2-fluorophenyl)prop-2-enamide]				
0.7859	0.7296	0.7325	O=C(/C=C/c1ccc(Cl)cc1)Nc1cccc(F)c1 [1c, (2E)-3-(4-Chlorophenyl)-N-(3-fluorophenyl)prop-2-enamide]				
0.7808	0.7252	0.7290	O=C(/C=C/c1ccc(Cl)cc1)Nc1ccc(F)cc1 [1d, (2E)-3-(4-Chlorophenyl)-N-(4-fluorophenyl)prop-2-enamide]				
0.5241	0.4650	0.4724	O=C(/C=C/c1ccc(Cl)cc1)Nc1ccccc1Cl [1e, (2E)-N-(2-Chlorophenyl)-3-(4-chlorophenyl)prop-2-enamide]				
0.6192	0.5603	0.5666	O=C(/C=C/c1ccc(Cl)cc1)Nc1cccc(Cl)c1 [1f, (2E)-N-(3-Chlorophenyl)-3-(4-chlorophenyl)prop-2-enamide]				
0.5598	0.5012	0.5065	O=C(/C=C/c1ccc(Cl)cc1)Nc1ccc(Cl)cc1 [1g, (2E)-N,3-bis(4-Chlorophenyl)prop-2-enamide]				
0.5506	0.4938	0.5010	O=C(/C=C/c1ccc(Cl)cc1)Nc1ccccc1C(F)(F)F [1h, (2E)-3-(4-Chlorophenyl)-N-[2-(trifluoromethyl)phenyl]prop-2-enamide]				
0.9078	0.8541	0.8560	O=C(/C=C/c1ccc(Cl)cc1)Nc1ccc(C(F)(F)F)cc1 [1j, (2E)-3-(4-Chlorophenyl)-N-[4-(trifluoromethyl)phenyl]prop-2-enamide]				
0.8759	0.8702	0.8754	O=C(/C=C/c1ccc(Cl)cc1)Nc1ccc(OC(F)(F)F)cc1 [1k, (2E)-3-(4-Chlorophenyl)-N-[4-(trifluoromethoxy)phenyl]prop-2-enamide]				
0.5746	0.5172	0.5223	O=C(/C=C/c1ccc(Cl)cc1)Nc1ccc(F)cc1F [1l, (2E)-3-(4-Chlorophenyl)-N-(2,4-difluorophenyl)prop-2-enamide]				
0.8054	0.7502	0.7537	O=C(/C=C/c1ccc(Cl)cc1)Nc1cc(F)cc(F)c1 [1m, (2E)-3-(4-Chlorophenyl)-N-(3,5-difluorophenyl)prop-2-enamide]				
0.9665	0.9141	0.9170	O=C(/C=C/c1ccc(Cl)cc1)Nc1ccc(Cl)cc1Cl [1n, (2E)-3-(4-Chlorophenyl)-N-(2,4-dichlorophenyl)prop-2-enamide]				
0.9507	0.8986	0.9010	O=C(/C=C/c1ccc(Cl)cc1)Nc1cc(Cl)ccc1Cl [1o, (2E)-3-(4-Chlorophenyl)-N-(2,5-dichlorophenyl)prop-2-enamide]				
0.7764	0.8203	0.8019	O=C(/C=C/c1ccc(Cl)c(Cl)c1)Nc1ccccc1F [2b, (2E)-N-(2-Fluorophenyl)-3-(3,4-dichlorophenyl)prop-2-enamide]				
0.9071	0.9453	0.8735	O=C(/C=C/c1ccc(Cl)c(Cl)c1)Nc1cccc(F)c1 [2c, (2E)-N-(3-Fluorophenyl)-3-(3,4-dichlorophenyl)prop-2-enamide]				
0.9009	0.9381	0.8660	O=C(/C=C/c1ccc(Cl)c(Cl)c1)Nc1ccc(F)cc1 [2d, (2E)-N-(4-Fluorophenyl)-3-(3,4-dichlorophenyl)prop-2-enamide]				
0.6488	0.6925	0.6739	O=C(/C=C/c1ccc(Cl)c(Cl)c1)Nc1ccccc1Cl [2e, (2E)-N-(2-Chlorophenyl)-3-(3,4-dichlorophenyl)prop-2-enamide]				
0.7404	0.7816	0.7616	O=C(/C=C/c1ccc(Cl)c(Cl)c1)Nc1cccc(Cl)c1 [2f, (2E)-N-(3-Chlorophenyl)-3-(3,4-dichlorophenyl)prop-2-enamide]				
0.6786	0.7224	0.7021	O=C(/C=C/c1ccc(Cl)c(Cl)c1)Nc1ccc(Cl)cc1 [2g, (2E)-N-(4-Chlorophenyl)-3-(3,4-dichlorophenyl)prop-2-enamide]				
0.6836	0.7295	0.6526	O=C(/C=C/c1ccc(Cl)c(Cl)c1)Nc1ccccc1C(F)(F)F [2h, (2E)-3-(3,4-Dichlorophenyl)-N-[2-(trifluoromethyl)phenyl]prop-2-enamide]				
0.6989	0.7094	0.6632	O=C(/C=C/c1ccc(Cl)c(Cl)c1)Nc1ccc(F)cc1F [2l, (2E)-3-(3,4-Dichlorophenyl)-N-(2,4-difluorophenyl)prop-2-enamide]				
0.9298	0.9345	0.8882	O=C(/C=C/c1ccc(Cl)c(Cl)c1)Nc1cc(F)cc(F)c1 [2m, (2E)-3-(3,4-Dichlorophenyl)-N-(3,5-difluorophenyl)prop-2-enamide]				
1.0932	1.0985	1.0565	O=C(/C=C/c1ccc(Cl)c(Cl)c1)Nc1ccc(Cl)cc1Cl [2n, (2E)-N-(2,4-Dichlorophenyl)-3-(3,4-dichlorophenyl)prop-2-enamide]				
1.0840	1.0887	1.0474	O=C(/C=C/c1ccc(Cl)c(Cl)c1)Nc1cc(Cl)ccc1Cl [2o, (2E)-N-(2,5-Dichlorophenyl)-3-(3,4-dichlorophenyl)prop-2-enamide]				
1.3043	1.3336	1.3080	O=C(/C=C/c1ccc(Cl)c(Cl)c1)Nc1cc(Cl)cc(Cl)c1 [2p, (2E)-N-(3,5-Dichlorophenyl)-3-(3,4-dichlorophenyl)prop-2-enamide]				
			NNC(=O)c1ccncc1 [INH, isoniazid, reference compound]	0.000117 (≈ 16 µg/mL)	0.000117 (≈ 16.1 µg/mL)	0.000467 (≈ 64 µg/mL)	0.000468 (≈ 64.1 µg/mL)
			CO[C@H]1/C=C/O[C@@]2(C)Oc3c(C)c(O)c4c(O)c(c(/C=N/N5CCN(C)CC5)c(O)c4c3C2=O)NC(=O)/C(C)=C\C=C\[C@H](C)[C@H](O)[C@@H](C)[C@@H](O)[C@@H](C)[C@H](OC(C)=O)[C@@H]1C [RIF, rifampicin, reference compound]	1.94e-05 (≈ 16 µg/mL)	1.95e-05 (≈ 16 µg/mL)	2.43e-06 (≈ 2 µg/mL)	2.45e-06 (≈ 2.02 µg/mL)
